Laboratory results reported in the NIST ThermoML archive (doi:10.1021/je400630f).

Experiment: xn = mol fraction of the nth substance listed
Settings: 100 kPa, Liquid; for viscosity: Capillary tube (Ostwald / Ubbelohde) method

CCCCCCCCO [octan-1-ol] + CCO
Settings | mass density, 283.15 K [kg/m3] | mass density, 293.15 K [kg/m3] | mass density, 298.15 K [kg/m3] | mass density, 303.15 K [kg/m3] | mass density, 313.15 K [kg/m3] | viscosity, 283.15 K [mPa·s] | viscosity, 293.15 K [mPa·s] | viscosity, 298.15 K [mPa·s] | viscosity, 303.15 K [mPa·s] | viscosity, 313.15 K [mPa·s]
x2 = 0 | 832.1 | 825.2 | 821.9 | 818.4 | 811.4 | 13.49 | 9.016 | 7.39 | 6.306 | 4.587
x2 = 0.1001 | 831.8 | 824.1 | 821.3 | 817.8 | 810.7 | 11.57 | 7.998 | 6.619 | 5.68 | 4.167
x2 = 0.2001 | 829.4 | 822.4 | 818.9 | 815.4 | 808.3 | 9.981 | 6.997 | 5.812 | 5.045 | 3.739
x2 = 0.3003 | 827.3 | 820.6 | 817 | 813.4 | 806.2 | 8.404 | 6.004 | 5.076 | 4.422 | 3.316
x2 = 0.3999 | 825.4 | 818.2 | 814.7 | 811.5 | 803.7 | 6.907 | 5.04 | 4.357 | 3.732 | 2.903
x2 = 0.5004 | 822.6 | 815.3 | 811.7 | 808.1 | 800.7 | 5.63 | 4.177 | 3.665 | 3.22 | 2.501
x2 = 0.6006 | 820.1 | 812.7 | 809 | 805.2 | 797.7 | 4.488 | 3.427 | 3.047 | 2.677 | 2.117
x2 = 0.7 | 816.8 | 809.3 | 805.4 | 801.7 | 793.9 | 3.543 | 2.711 | 2.445 | 2.178 | 1.771
x2 = 0.7999 | 811.7 | 803.9 | 800 | 796.1 | 788.1 | 2.714 | 2.146 | 1.958 | 1.712 | 1.4
x2 = 0.8998 | – | – | – | – | – | 2.003 | 1.593 | 1.474 | 1.328 | 1.112
x2 = 0.9001 | 805 | 796.8 | 792.7 | 788.6 | 780.4 | – | – | – | – | –

CCCCCO [pentan-1-ol] + CCO
Settings | mass density, 283.15 K [kg/m3] | mass density, 293.15 K [kg/m3] | mass density, 298.15 K [kg/m3] | mass density, 303.15 K [kg/m3] | mass density, 313.15 K [kg/m3] | viscosity, 283.15 K [mPa·s] | viscosity, 293.15 K [mPa·s] | viscosity, 298.15 K [mPa·s] | viscosity, 303.15 K [mPa·s] | viscosity, 313.15 K [mPa·s]
x2 = 0 | 822.1 | 814.7 | 811.2 | 807.5 | 800 | 5.417 | 3.974 | 3.441 | 2.99 | 2.263
x2 = 0.1 | 820.6 | 813.2 | 810 | 805.8 | 798.3 | 4.879 | 3.595 | 3.154 | 2.741 | 2.1
x2 = 0.2 | 819.4 | 812 | 808.3 | 804.6 | 797 | 4.379 | 3.263 | 2.874 | 2.506 | 1.931
x2 = 0.2998 | 817.8 | 810.3 | 806.6 | 802.8 | 795.1 | 3.892 | 2.935 | 2.587 | 2.27 | 1.771
x2 = 0.3999 | 815.4 | 807.8 | 804.2 | 800.2 | 792.4 | 3.404 | 2.619 | 2.324 | 2.05 | 1.61
x2 = 0.4997 | 813.3 | 805.6 | 801.8 | 797.9 | 790 | 2.966 | 2.328 | 2.07 | 1.828 | 1.452
x2 = 0.6 | 811 | 803.2 | 799.6 | 795.4 | 787.4 | 2.564 | 2.04 | 1.833 | 1.628 | 1.312
x2 = 0.7 | 808.4 | 800.5 | 796.4 | 792.5 | 784.3 | 2.234 | 1.796 | 1.631 | 1.453 | 1.179
x2 = 0.8 | 805.3 | 797.3 | 793.7 | 789.1 | 780.8 | 1.938 | 1.583 | 1.435 | 1.285 | 1.062
x2 = 0.8999 | 802 | 793.7 | 790.4 | 785.3 | 776.8 | 1.693 | 1.381 | 1.256 | 1.141 | 0.956
